In patent publication US11007206B2, “Cyclic boronic acid ester derivatives and therapeutic uses thereof” (Melinta Subsidiary Corp., priority 2012, dated 2021):
“And” between values parts separate entries of the source, which are not always exact repeats. Identical values can stand only once. Like-named read-outs stand apart in the source and are kept apart here.

Test: Plasma pharmacokinetics of Compound I after single intraperitoneal dose in Swiss-Webster mice (Example 1)
Type: in vivo
Method: Example 1 provides a summary of three pharmacokinetic studies Compound I conducted in Swiss-webster mice. The pharmacokinetics of 5 mg/kg, 15 mg/kg and 50 mg/kg of Compound I via the intraperitoneal route were discussed.
Compound I was prepared using the method described in the U.S. Publication 2012/0040932 A1. 100 mg of Compound I was dissolved in 30% 1N NaOH to ˜pH 5.0 as a stock solution. Compound I was further diluted in 0.9% saline to achieve target concentrations.
The specifications for animals used on this study were as follows: • Species: Mouse • Strain: CFW (Swiss) • Gender: Female • Source: Harlan Laboratories (Livermore, Calif.) • Number of Animals: 33 for each dose • Body Weight Range: 18-22 g at the start of the study
After acclimation, mice were administered a single intraperitoneal dose of Compound I at 5, 15, and 50 mg/kg. Groups of three mice were sacrificed at 0.08, 0.16, 0.25, 0.33, 0.5, 0.75, 1.0, 2.0, 3.0, and 4.0 h after dosing. Blood samples (one sample per animal) were collected by cardiac puncture in a heparin containing tube. Blood samples were centrifuged within 5 min of collection at 12000 g for 5 min to obtain plasma. The plasma samples were stored on −80° C. until analyzed.
Compound I standard curves were prepared in plasma from 0.1 to 100 μg/mL. 50 μl aliquots of sample were placed in 1.5 mL microcentrifuge tubes. 20 μl of Compound II (10 μg/mL) was added as internal standard to each sample or standard. 20 μl of 30% trichloroacetic acid was then added to each sample or standard. The samples were mixed using a vortex mixer centrifuged for 10 min at 15,000 RPM using a tabletop centrifuge. The supernatant (approx. […]) was removed and added to 100 μl of water in a 96-well plate. The samples were mixed again using a vortex mixer. 10 μl of each sample was injected onto an HPLC-MS for quantification.
The HPLC-MS conditions for plasma analysis are as follows: • Column: Phenomenex Fusion-RP or equivalent reversed-phase column, 5 um, 50×2 mm. • Flow rate: 0.6 mL/min. • Mobile phase A: 0.1% formic acid in water. • Mobile phase B: 0.1% formic acid in acetonitrile. • Gradient: 5-60% B in 1.5 min. • Mass spectrometer: Negative ion mode with electrospray ionization. • MS/MS: Compound I-Q1-m/e=296, Q3-m/e=234. • Compound II-Q1-m/e=331, Q3-m/e=201.
Plasma concentrations were fit using a one compartment IV infusion model (WinNonlinVersion 5.3, Pharsight Corp, and Mountain View, Calif.).

[1] = Swiss-Webster mice, plasma, 5 mg/kg intraperitoneal
[2] = Swiss-Webster mice, plasma, 15 mg/kg intraperitoneal
[3] = Swiss-Webster mice, plasma, 50 mg/kg intraperitoneal
[4] = female, CFW (Swiss-Webster), mouse, ip, Swiss-Webster mice, plasma, 5 mg/kg intraperitoneal
[5] = female, CFW (Swiss-Webster), mouse, ip, Swiss-Webster mice, plasma, 15 mg/kg intraperitoneal
[6] = female, CFW (Swiss-Webster), mouse, ip, Swiss-Webster mice, plasma, 50 mg/kg intraperitoneal

O=C(O)C[C@@H]1CC[C@H](NC(=O)Cc2cccs2)B(O)O1 [Compound I]
Linearity of pharmacokinetics (Swiss-Webster mice, dose range of 5 to 50 mg/kg intraperitoneal): linear PK | AUC [1]: 3100 ng·h/mL | Cl [1]: 26.8 mL/min/kg | AUC [2]: 8300 ng·h/mL | Cl [2]: 30 mL/min/kg | AUC [3]: 31400 ng·h/mL | Cl [3]: 26.7 mL/min/kg | Cmax [4]: 8260 ng/mL | half-life [4]: 9.6 min | Cmax [5]: 19500 ng/mL | half-life [5]: 12 min | Cmax [6]: 67100 ng/mL | half-life [6]: 15 min | concentration at 0.08 h (female, CFW (Swiss-Webster), mouse, plasma, ip, 5 mg/kg, mouse plasma, 5 mg/kg intraperitoneal, samples m.p. 1.x = 1st time point (0.08 h), individual animals, read-out: Calc. Conc. (plasma concentration)): 5580 ng/mL | concentration at 0.5 h (female, CFW (Swiss-Webster), mouse, plasma, ip, 5 mg/kg, mouse plasma, 5 mg/kg intraperitoneal, samples m.p. 5.x = 5th time point (0.5 h), individual animals, read-out: Calc. Conc. (plasma concentration)): 1550 ng/mL | concentration at 4 h (female, CFW (Swiss-Webster), mouse, plasma, ip, 5 mg/kg, mouse plasma, 5 mg/kg intraperitoneal, samples m.p. 10.x = 10th time point (4.0 h), individual animals, read-out: Calc. Conc. (plasma concentration)): 3.71 ng/mL | concentration at 0.08 h (female, CFW (Swiss-Webster), mouse, plasma, ip, 15 mg/kg, mouse plasma, 15 mg/kg intraperitoneal, samples m.p. 1.x = 1st time point (0.08 h), individual animals, read-out: Calc. Conc. (plasma concentration)): 16700 ng/mL | concentration at 0.16 h (female, CFW (Swiss-Webster), mouse, plasma, ip, 15 mg/kg, mouse plasma, 15 mg/kg intraperitoneal, samples m.p. 2.x = 2nd time point (0.16 h), individual animals, read-out: Calc. Conc. (plasma concentration)): 15500 ng/mL | concentration at 2 h (female, CFW (Swiss-Webster), mouse, plasma, ip, 15 mg/kg, mouse plasma, 15 mg/kg intraperitoneal, samples m.p. 8.x = 8th time point (2.0 h), individual animals, read-out: Calc. Conc. (plasma concentration)): 126 ng/mL | concentration at 4 h (female, CFW (Swiss-Webster), mouse, plasma, ip, 15 mg/kg, mouse plasma, 15 mg/kg intraperitoneal, samples m.p. 10.x = 10th time point (4.0 h), individual animals, read-out: Calc. Conc. (plasma concentration)): < 0 ng/mL | concentration at 0.08 h (female, CFW (Swiss-Webster), mouse, plasma, ip, 50 mg/kg, mouse plasma, 50 mg/kg intraperitoneal, samples m.p. 1.x = 1st time point (0.08 h), individual animals, read-out: Calc. Conc. (plasma concentration)): 34800 ng/mL | concentration at 0.16 h (female, CFW (Swiss-Webster), mouse, plasma, ip, 50 mg/kg, mouse plasma, 50 mg/kg intraperitoneal, samples m.p. 2.x = 2nd time point (0.16 h), 5x dil., individual animals, read-out: Calc. Conc. (plasma concentration)): 58900 ng/mL | concentration at 0.25 h (female, CFW (Swiss-Webster), mouse, plasma, ip, 50 mg/kg, mouse plasma, 50 mg/kg intraperitoneal, samples m.p. 3.x = 3rd time point (0.25 h), 5x dil., individual animals, read-out: Calc. Conc. (plasma concentration)): 64200 ng/mL | concentration at 0.75 h (female, CFW (Swiss-Webster), mouse, plasma, ip, 50 mg/kg, mouse plasma, 50 mg/kg intraperitoneal, samples m.p. 6.x = 6th time point (0.75 h), individual animals, read-out: Calc. Conc. (plasma concentration)): 19100 ng/mL | concentration at 3 h (female, CFW (Swiss-Webster), mouse, plasma, ip, 50 mg/kg, mouse plasma, 50 mg/kg intraperitoneal, samples m.p. 9.x = 9th time point (3.0 h), individual animals, read-out: Calc. Conc. (plasma concentration)): 181 ng/mL | Calc. Conc. (plasma concentration) (mouse plasma, 5 mg/kg intraperitoneal, samples m.p. 1.x = 1st time point (0.08 h), individual animals, 5 mg/kg): 5.77 µg/mL and 4.84 µg/mL | Calc. Conc. (plasma concentration) (mouse plasma, 5 mg/kg intraperitoneal, samples m.p. 2.x = 2nd time point (0.16 h), individual animals, 5 mg/kg): 9.68 µg/mL and 7.41 µg/mL and 3.49 µg/mL | Calc. Conc. (plasma concentration) (mouse plasma, 5 mg/kg intraperitoneal, samples m.p. 3.x = 3rd time point (0.25 h), individual animals, 5 mg/kg): 9.08 µg/mL and 7.43 µg/mL and 3.8 µg/mL | Calc. Conc. (plasma concentration) (mouse plasma, 5 mg/kg intraperitoneal, samples m.p. 4.x = 4th time point (0.33 h), individual animals, 5 mg/kg): 3.37 µg/mL and 1.01 µg/mL and 3.73 µg/mL | Calc. Conc. (plasma concentration) (mouse plasma, 5 mg/kg intraperitoneal, samples m.p. 5.x = 5th time point (0.5 h), individual animals, 5 mg/kg): 1.87 µg/mL and 1.31 µg/mL | Calc. Conc. (plasma concentration) (mouse plasma, 5 mg/kg intraperitoneal, samples m.p. 6.x = 6th time point (0.75 h), individual animals, 5 mg/kg): 0.110 µg/mL and 0.872 µg/mL and 0.461 µg/mL | Calc. Conc. (plasma concentration) (mouse plasma, 5 mg/kg intraperitoneal, samples m.p. 7.x = 7th time point (1.0 h), individual animals, 5 mg/kg): 0.551 µg/mL and 0.213 µg/mL and 0.457 µg/mL | Calc. Conc. (plasma concentration) (mouse plasma, 5 mg/kg intraperitoneal, samples m.p. 8.x = 8th time point (2.0 h), individual animals, 5 mg/kg): 0.0898 µg/mL and 0.0404 µg/mL and 0.0440 µg/mL | Calc. Conc. (plasma concentration) (mouse plasma, 5 mg/kg intraperitoneal, samples m.p. 9.x = 9th time point (3.0 h), individual animals, 5 mg/kg): 0.0103 µg/mL and 0.0354 µg/mL and 0.00806 µg/mL | Calc. Conc. (plasma concentration) (mouse plasma, 5 mg/kg intraperitoneal, samples m.p. 10.x = 10th time point (4.0 h), individual animals, 5 mg/kg): 0.00577 µg/mL and 0.00418 µg/mL | Calc. Conc. (plasma concentration) (mouse plasma, 15 mg/kg intraperitoneal, samples m.p. 1.x = 1st time point (0.08 h), individual animals, 15 mg/kg): 9.67 µg/mL
